Laboratory results published in patent US20240299304A1, “A METHOD FOR THE PRODUCTION OF GASTRORETENTIVE COMPACT MATRICES FOR THE CONTROLLED RELEASE OF ACTIVE SUBSTANCES AND COMPACT MATRICES THUS OBTAINED” (UNIVERSITA DEGLI STUDI DI GENOVA, priority 2021, published 2024).

Assay: pH in water of pH regulators before and after heat treatment
Assay type: physicochemical
Settings: for pH in water after heat treatment: after heat treatment at 150° C. for 15 min

Structure (SMILES) | pH in water after heat treatment | pH in water before heat treatment
O=P([O-])([O-])O.[Na+].[Na+] [Na2HPO4 2H2O, disodium hydrogen phosphate] | 6 | 6
O.O.O.O.O.O.O.O.O.O.O.O.O=P([O-])([O-])[O-].[Na+].[Na+].[Na+] [Na3PO4 12H2O] | 10 | 10
O=C([O-])O.[Na+] [NaHCO3, sodium bicarbonate] | 10 | 7
O=C([O-])[O-].[Na+].[Na+] [Na2CO3, sodium carbonate] | 10 | 10
O=C([O-])[O-].[Mg+2] [MgCO3] | 7 | 6
